Measured values taken from the kinase profiling compilation of Christmann-Franck et al. (2016).
Several values for one entry are separate records, joined by “and”; a condition that tells them apart may be missing. Equal entries are not always repeated.

Tests used:
Assay in all cases: KINOMEscan competition binding
Conditions in all cases: compound 10.0 µM
[1] = biological target: STK16 (human) (UniProt O75716)
[2] = biological target: PRKD2 (human) (UniProt Q9BZL6)
[3] = tested on: FLT3 (human), P36888 [D835Y]
[4] = biological target: HCK (human) (UniProt P08631)
[5] = biological target: GSK3B (human) (UniProt P49841)
[6] = biological target: CDK18 (human) (UniProt Q07002)
[7] = biological target: MAP2K5 (human) (UniProt Q13163)
[8] = biological target: RPS6KA4 KD2 (human) (UniProt O75676)
[9] = biological target: JAK2 JH1 catalytic (human) (UniProt O60674)
[10] = biological target: AURKB (human) (UniProt Q96GD4)
[11] = biological target: CaMK1 (human) (UniProt Q14012)
[12] = biological target: MARK4 (human) (UniProt Q96L34)
[13] = biological target: CSNK2A2 (human) (UniProt P19784)
[14] = biological target: SNRK (human) (UniProt Q9NRH2)
[15] = biological target: MAPK10 (human) (UniProt P53779)
[16] = biological target: PDGFRA (human) (UniProt P16234)
[17] = biological target: RIOK1 (human) (UniProt Q9BRS2)
Chain of RIOK1 (human) (Q9BRS2 whole entry, looked up): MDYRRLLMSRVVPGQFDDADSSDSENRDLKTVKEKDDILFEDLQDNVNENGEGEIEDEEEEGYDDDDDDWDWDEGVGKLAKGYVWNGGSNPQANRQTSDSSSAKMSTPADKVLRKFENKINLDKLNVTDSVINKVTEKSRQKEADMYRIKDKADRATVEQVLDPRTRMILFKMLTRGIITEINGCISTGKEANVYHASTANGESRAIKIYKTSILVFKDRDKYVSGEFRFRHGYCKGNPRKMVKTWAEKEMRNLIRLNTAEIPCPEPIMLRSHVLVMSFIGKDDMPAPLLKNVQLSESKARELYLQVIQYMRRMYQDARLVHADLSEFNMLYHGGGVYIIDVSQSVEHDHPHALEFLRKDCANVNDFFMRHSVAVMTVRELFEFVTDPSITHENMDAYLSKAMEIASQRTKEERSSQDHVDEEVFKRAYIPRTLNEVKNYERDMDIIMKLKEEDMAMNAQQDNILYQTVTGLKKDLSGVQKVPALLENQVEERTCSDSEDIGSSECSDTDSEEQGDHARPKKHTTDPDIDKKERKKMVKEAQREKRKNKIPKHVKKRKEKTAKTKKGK

[18] = biological target: PRKAA1 (human) (UniProt Q13131)
[19] = biological target: MKNK2 (human) (UniProt Q9HBH9)
[20] = biological target: AURKC (human) (UniProt Q9UQB9)
Chain of AURKC (human) (Q9UQB9 whole entry, looked up): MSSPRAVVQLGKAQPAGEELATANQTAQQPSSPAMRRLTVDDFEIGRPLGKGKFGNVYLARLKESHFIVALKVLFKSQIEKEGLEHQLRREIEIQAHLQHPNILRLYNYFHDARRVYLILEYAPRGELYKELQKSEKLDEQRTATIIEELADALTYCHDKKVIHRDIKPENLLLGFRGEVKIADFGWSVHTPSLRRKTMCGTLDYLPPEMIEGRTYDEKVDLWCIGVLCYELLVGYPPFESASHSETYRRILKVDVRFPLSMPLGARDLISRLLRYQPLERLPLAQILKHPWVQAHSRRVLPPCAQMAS

[21] = biological target: MINK1 (human) (UniProt Q8N4C8)
Chain of MINK1 (human) (Q8N4C8 whole entry, looked up): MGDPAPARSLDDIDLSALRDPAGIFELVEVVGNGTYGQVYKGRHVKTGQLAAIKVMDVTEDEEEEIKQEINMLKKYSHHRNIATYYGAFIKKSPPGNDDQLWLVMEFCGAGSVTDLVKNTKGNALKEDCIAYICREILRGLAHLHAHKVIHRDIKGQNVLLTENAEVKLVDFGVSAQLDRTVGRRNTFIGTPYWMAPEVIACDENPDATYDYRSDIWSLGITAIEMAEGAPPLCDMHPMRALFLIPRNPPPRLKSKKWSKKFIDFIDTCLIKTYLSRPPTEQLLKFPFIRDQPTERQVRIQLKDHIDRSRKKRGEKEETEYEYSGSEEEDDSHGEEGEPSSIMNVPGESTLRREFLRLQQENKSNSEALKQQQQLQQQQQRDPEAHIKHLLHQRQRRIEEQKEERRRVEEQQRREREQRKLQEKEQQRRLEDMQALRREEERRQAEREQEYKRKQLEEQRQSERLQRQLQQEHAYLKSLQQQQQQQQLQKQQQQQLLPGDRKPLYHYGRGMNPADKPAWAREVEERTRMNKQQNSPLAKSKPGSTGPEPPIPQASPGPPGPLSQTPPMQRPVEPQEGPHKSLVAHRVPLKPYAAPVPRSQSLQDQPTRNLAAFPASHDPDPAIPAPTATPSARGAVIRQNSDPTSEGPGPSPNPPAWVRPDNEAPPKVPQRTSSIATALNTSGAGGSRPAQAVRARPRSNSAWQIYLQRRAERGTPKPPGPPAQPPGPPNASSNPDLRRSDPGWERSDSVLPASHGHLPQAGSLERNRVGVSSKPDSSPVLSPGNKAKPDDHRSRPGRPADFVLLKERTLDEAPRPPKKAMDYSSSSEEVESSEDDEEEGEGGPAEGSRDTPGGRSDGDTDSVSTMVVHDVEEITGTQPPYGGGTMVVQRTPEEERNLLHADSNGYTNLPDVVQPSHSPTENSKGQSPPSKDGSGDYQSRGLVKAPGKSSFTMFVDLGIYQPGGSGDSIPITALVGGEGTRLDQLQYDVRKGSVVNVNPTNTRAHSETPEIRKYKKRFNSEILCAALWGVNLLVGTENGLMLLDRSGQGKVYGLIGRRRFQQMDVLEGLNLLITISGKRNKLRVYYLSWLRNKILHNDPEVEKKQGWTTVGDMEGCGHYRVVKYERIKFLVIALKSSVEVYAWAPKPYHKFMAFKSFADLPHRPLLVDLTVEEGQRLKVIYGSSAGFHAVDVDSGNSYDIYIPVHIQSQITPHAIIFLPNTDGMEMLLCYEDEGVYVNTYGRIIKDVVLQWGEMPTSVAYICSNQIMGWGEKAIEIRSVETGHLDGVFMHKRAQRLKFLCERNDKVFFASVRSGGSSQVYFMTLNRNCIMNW

[22] = biological target: CSF1R (human) (UniProt P07333)
Chain of CSF1R (human) (P07333 whole entry, looked up): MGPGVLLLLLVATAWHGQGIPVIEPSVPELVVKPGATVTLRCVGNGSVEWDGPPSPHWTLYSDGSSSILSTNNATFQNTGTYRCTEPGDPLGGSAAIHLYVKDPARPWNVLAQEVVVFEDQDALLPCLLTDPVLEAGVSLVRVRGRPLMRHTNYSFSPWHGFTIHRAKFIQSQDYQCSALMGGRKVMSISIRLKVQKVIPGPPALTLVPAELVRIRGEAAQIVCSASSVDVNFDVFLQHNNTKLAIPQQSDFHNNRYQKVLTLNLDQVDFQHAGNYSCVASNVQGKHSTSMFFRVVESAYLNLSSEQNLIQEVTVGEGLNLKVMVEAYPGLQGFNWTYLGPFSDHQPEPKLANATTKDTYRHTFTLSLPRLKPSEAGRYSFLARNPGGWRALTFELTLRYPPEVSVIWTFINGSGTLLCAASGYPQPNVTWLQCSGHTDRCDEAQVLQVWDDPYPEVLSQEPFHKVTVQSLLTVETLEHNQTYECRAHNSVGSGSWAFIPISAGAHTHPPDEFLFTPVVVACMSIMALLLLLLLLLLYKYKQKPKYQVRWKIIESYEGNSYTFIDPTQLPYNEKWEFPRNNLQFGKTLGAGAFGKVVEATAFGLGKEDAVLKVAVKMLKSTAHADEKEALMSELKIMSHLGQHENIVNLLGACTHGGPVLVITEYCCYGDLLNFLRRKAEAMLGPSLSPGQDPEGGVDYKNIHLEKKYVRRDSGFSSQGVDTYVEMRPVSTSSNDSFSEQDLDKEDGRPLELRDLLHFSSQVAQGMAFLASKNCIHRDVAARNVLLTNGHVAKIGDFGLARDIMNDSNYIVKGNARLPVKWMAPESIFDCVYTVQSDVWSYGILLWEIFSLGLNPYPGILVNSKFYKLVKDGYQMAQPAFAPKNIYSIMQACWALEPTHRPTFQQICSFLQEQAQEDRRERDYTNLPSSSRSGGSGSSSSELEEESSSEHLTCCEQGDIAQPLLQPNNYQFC

[23] = biological target: ANKK1 (human) (UniProt Q8NFD2)
[24] = biological target: PKN2 (human) (UniProt Q16513)
[25] = biological target: STK32C (human) (UniProt Q86UX6)
[26] = biological target: NEK1 (human) (UniProt Q96PY6)
[27] = biological target: MAP3K12 (human) (UniProt Q12852)
[28] = tested on: EGFR (human), P00533 [L858R]
[29] = biological target: STK35 (human) (UniProt Q8TDR2)
[30] = biological target: MAPK11 (human) (UniProt Q15759)
[31] = biological target: RPS6KA1 KD2 (human) (UniProt Q15418)
Chain of RPS6KA1 KD2 (human) (Q15418 whole entry, looked up): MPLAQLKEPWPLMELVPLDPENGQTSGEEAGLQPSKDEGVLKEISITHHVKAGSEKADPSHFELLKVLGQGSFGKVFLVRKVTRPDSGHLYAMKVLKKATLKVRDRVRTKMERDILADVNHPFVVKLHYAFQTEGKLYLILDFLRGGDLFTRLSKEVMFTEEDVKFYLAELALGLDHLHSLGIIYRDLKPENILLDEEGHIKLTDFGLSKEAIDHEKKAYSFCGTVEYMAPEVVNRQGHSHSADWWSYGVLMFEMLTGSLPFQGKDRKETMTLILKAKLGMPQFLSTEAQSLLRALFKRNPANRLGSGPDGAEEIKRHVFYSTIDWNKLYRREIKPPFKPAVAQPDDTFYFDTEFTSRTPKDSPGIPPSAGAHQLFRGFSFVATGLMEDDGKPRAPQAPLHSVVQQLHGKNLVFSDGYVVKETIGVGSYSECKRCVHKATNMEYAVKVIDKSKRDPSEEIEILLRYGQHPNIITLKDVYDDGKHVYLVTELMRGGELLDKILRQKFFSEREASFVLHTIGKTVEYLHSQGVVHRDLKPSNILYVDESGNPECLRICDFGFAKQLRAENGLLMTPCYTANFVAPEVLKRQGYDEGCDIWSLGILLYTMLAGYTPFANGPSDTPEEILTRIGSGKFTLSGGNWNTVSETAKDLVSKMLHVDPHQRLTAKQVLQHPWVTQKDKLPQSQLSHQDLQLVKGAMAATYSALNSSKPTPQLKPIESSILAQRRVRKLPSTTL

[32] = biological target: TESK1 (human) (UniProt Q15569)
[33] = biological target: SBK1 (human) (UniProt Q52WX2)
[34] = biological target: STK33 (human) (UniProt Q9BYT3)
[35] = biological target: AAK1 (human) (UniProt Q2M2I8)
[36] = biological target: MAP3K15 (human) (UniProt Q6ZN16)
[37] = biological target: EPHA5 (human) (UniProt P54756)
[38] = biological target: SRPK1 (human) (UniProt Q96SB4)
[39] = biological target: HUNK (human) (UniProt P57058)
[40] = biological target: AURKA (human) (UniProt O14965)

Chain of PRKD2 (human) (Q9BZL6 whole entry, looked up): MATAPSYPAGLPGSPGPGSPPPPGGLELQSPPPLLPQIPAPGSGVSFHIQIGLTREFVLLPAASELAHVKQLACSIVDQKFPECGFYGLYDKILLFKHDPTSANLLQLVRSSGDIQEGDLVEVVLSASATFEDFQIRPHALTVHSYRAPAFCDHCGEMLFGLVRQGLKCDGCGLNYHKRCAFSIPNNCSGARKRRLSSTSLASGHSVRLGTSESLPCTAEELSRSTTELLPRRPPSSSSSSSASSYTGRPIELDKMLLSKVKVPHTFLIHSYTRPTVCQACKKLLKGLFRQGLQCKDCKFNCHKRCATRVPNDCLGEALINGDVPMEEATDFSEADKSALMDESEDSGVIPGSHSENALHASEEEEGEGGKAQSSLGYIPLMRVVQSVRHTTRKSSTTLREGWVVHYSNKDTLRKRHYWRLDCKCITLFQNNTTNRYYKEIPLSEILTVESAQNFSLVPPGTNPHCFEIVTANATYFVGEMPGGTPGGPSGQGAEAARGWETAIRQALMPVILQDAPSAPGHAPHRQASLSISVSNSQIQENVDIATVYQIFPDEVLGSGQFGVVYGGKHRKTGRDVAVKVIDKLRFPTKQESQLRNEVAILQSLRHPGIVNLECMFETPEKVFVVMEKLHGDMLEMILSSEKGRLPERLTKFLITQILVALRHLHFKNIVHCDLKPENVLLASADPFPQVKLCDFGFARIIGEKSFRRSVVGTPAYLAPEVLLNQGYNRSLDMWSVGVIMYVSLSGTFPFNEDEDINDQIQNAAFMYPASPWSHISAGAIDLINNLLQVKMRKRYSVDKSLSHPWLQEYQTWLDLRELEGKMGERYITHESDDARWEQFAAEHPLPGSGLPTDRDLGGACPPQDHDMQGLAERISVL

SMILES | kinase still bound, per cent of control [1] | kinase still bound, per cent of control [2] | kinase still bound, per cent of control [3] | kinase still bound, per cent of control [4] | kinase still bound, per cent of control [5] | kinase still bound, per cent of control [6] | kinase still bound, per cent of control [7] | kinase still bound, per cent of control [8] | kinase still bound, per cent of control [9] | kinase still bound, per cent of control [10] | kinase still bound, per cent of control [11] | kinase still bound, per cent of control [12] | kinase still bound, per cent of control [13] | kinase still bound, per cent of control [14] | kinase still bound, per cent of control [15] | kinase still bound, per cent of control [16] | kinase still bound, per cent of control [17] | kinase still bound, per cent of control [18] | kinase still bound, per cent of control [19] | kinase still bound, per cent of control [20] | further results
COc1cc2ncnc(Nc3cccc(Cl)c3)c2cc1OC | 97% | 86% | 11% | 6.8% | 90% | 79% | 3.5% | 91% | 46% | 40% | 81% | 100% | 16% | 71% | 9.8% | 29% | 65% | 100% | 3.9% | 49% | kinase still bound, per cent of control [21]: 37%; kinase still bound, per cent of control [22]: 72% and 91%; kinase still bound, per cent of control [23]: 63%; kinase still bound, per cent of control [24]: 59%; kinase still bound, per cent of control [25]: 100%; kinase still bound, per cent of control [26]: 77%; kinase still bound, per cent of control [27]: 92%; kinase still bound, per cent of control [28]: 0.05%; kinase still bound, per cent of control [29]: 58%; kinase still bound, per cent of control [30]: 57%; kinase still bound, per cent of control [31]: 28%; kinase still bound, per cent of control [32]: 100%; kinase still bound, per cent of control [33]: 25%; kinase still bound, per cent of control [34]: 73%; kinase still bound, per cent of control [35]: 18%; kinase still bound, per cent of control [36]: 34%; kinase still bound, per cent of control [37]: 55%; kinase still bound, per cent of control [38]: 67%; kinase still bound, per cent of control [39]: 69%; kinase still bound, per cent of control [40]: 43%
N#Cc1cc(-c2ccnc(Nc3ccc(-n4cnc(-c5cccnc5)n4)cc3)n2)cc(N2CCOCC2)c1 | 12% | 93% | 14% | 100% | 3.1% | 43% | 8.6% | 100% | 0% | 57% | 83% | 78% | 11% | 90% | 0.15% | 1.2% | 3.8% | 84% | 34% | 40% | kinase still bound, per cent of control [21]: 31%; kinase still bound, per cent of control [22]: 14%; kinase still bound, per cent of control [23]: 55%; kinase still bound, per cent of control [24]: 44%; kinase still bound, per cent of control [25]: 89%; kinase still bound, per cent of control [26]: 57%; kinase still bound, per cent of control [27]: 63%; kinase still bound, per cent of control [28]: 54%; kinase still bound, per cent of control [29]: 48%; kinase still bound, per cent of control [30]: 79%; kinase still bound, per cent of control [31]: 77%; kinase still bound, per cent of control [32]: 54%; kinase still bound, per cent of control [33]: 100%; kinase still bound, per cent of control [34]: 88%; kinase still bound, per cent of control [35]: 5.4%; kinase still bound, per cent of control [36]: 66%; kinase still bound, per cent of control [37]: 91%; kinase still bound, per cent of control [38]: 30%; kinase still bound, per cent of control [39]: 42%; kinase still bound, per cent of control [40]: 93%
